Counter-ions that a name gives are not always drawn.
What was measured:
stability in alcohols = format: physicochemical; details: free acid; e.g. methanol, room temperature, four hours
Description: For example, 20-deoxynarasin acid (435.1 mg) was dissolved in methanol (40 ml) and allowed to stand at room temperature for four hours. The solution was then evaporated to dryness under vacuum; the residue was redissolved in dioxane and lyophilized to give 417.8 mg of 20-deoxy-epi-17-narasin acid.

solubility = format: physicochemical
Eimeria tenella = assay: chick feeding experiment, Eimeria tenella challenge; format: in vivo, chickens; details: 100 ppm in diet; Na salt
Source text: A feeding experiment in young chickens confirms that the deoxynarasin antibiotics have anticoccidial activity in vivo.
^1 Two cages of four chickens each per treatment.
^2 Maximum possible score = 4.00.

| Structure (SMILES) | stability in alcohols (stability in alcohols) | solubility (solubility; methanol, ethanol, dimethylformamide, dimethyl sulfoxide, ethyl acetate, chloroform, acetone and benzene) | solubility (solubility; nonpolar organic solvents such as hexane) | solubility (solubility; water) | mortality (in words) (Eimeria tenella) | number of lesions (in words) (Eimeria tenella) | weight gains (in words) (Eimeria tenella) |
| --- | --- | --- | --- | --- | --- | --- | --- |
| CCC(C(=O)O)C1OC(C(C)C(O)C(C)C(=O)C(CC)C2OC3(C=CCC4(CCC(C)(C5CCC(O)(CC)C(C)O5)O4)O3)C(C)CC2C)C(C)CC1C (stereo not shown) [20-deoxynarasin] | unstable in alcohols, converting to 20-deoxy-epi-17-narasin free acid | soluble | only slightly soluble | insoluble | – | – | – |
| CCC(C(=O)O)C1OC(C(C)C(O)C(C)C(=O)C(CC)C2OC3(C=CCC4(CCC(C)(C5CCC(O)(CC)C(C)O5)O4)O3)C(C)CC2C)C(C)CC1C (stereo not shown) [20-deoxynarasin (Na salt), 20-deoxynarasin] | – | – | – | – | prevented mortality | decreased the number of lesions | improved weight gains |

— patent publication US4204039A, “Process for producing deoxynarasin antibiotics” (Eli Lilly and Company, priority 1978, dated 1980)
